According to US20230277483A1, “COMPOSITIONS AND METHODS TO TREAT INFLAMMATION” (University of Iowa Research Foundation, priority 2022, published 2023):

Key:
3T3-L1 = experiment: TNF-induced inflammation in differentiated white adipocytes; assay type: cell-based, mouse; settings: 10 ng/ml TNF with 0.1 uM HCA, 24 hr
Description: 3T3-L1 (CL-173-ATCC, PMID. 26451286) were grown in DMEM containing 10% fetal bovine serum (FBS) and 1% pen/strep. Cells were induced to differentiate 2 d after reaching confluence by supplementing growth media with 3 nM insulin (Humulin R, Lily, Humulin R U-500, 0002-8501-01), 0.25 nM dexamethasone (Sigma, D4902), 2 uM rosiglitazone (Sigma, R2408) and 0.5 mM 1-methyl-3-isobutyl-xanthine (Sigma, I5879). From day 3 until day 7, cells were maintained in growth media supplemented with 3 nM insulin after which the mature adipocytes were maintained in growth media. Cells were then incubated for 24 hr in the presence or absence of 10 ng/ml TNF (PeproTech, 315-01A) with or without 0.1 uM 6-Hydroxycaproic acid (HCA, Sigma, 515302).
To determine the effects of HCA on adipose-mediated inflammation, 3T3-L1 cells were differentiated into white adipocytes and then exposed to the pro-inflammatory cytokine tumor necrosis factor alpha (TNFa).

[1] = test system: human gingival fibroblasts (HGF); experiment: Proinflammatory cytokines after Pg-LPS challenge (qRT-PCR, ELISA, antibody array); assay type: cell-based
Description: Sg metabolites modulate proinflammatory cytokines in human periodontal associated cells in vitro. Sg were cultured in a total of 40 ml DMEM for 24 hrs. After 200 μl of Sg suspension reached 0.2 at OD600 value in a 96-well plate, the Sg metabolites were collected by centrifugation at 3000 g for 10 min and then filtered through a 0.22 μm filter. No toxicity of Sg metabolites was detected using an MTT assay on primary human bone marrow mesenchymal stromal cells (BMSCs) and primary human gingival fibroblasts (HGF) (data no shown). The modulation of Sg metabolites on inflammatory cytokines was tested using human monocyte-derived macrophages (MDM) and HGF. The MDM were generated by inducing a human macrophage cell line (THP-1) using PMA at 10 ng/ml. The MDM at 2×10^6 cells/per well and HGF at 2×10^4 cells/per well were cultured in 24-well plates using DMEM with 10% FBS and 1% PS. The Sg metabolites at 1 and 5% v/v were added and incubated for 24 hrs before challenging with Pg-LPS at 100 ng/ml.
L-Norleucine as well as other metabolites modulate proinflammatory cytokines in macrophages and HGF. L-Norleucine was obtained commercially (Sigma) and dissolved in DMEM. Mouse macrophages and human HGF were cultured with DMEM supplemented with different concentrations of L-Norleucine and subsequently challenged with Pg-LPS at 100 ng/ml.
Human monocyte-derived macrophages (MDM) using THP-1 cells and HGF were cultured in a 24-well plate with DMEM and challenged with Pg-LPS at 100 ng/ml.
In addition, freshly isolated epidydimal white adipose tissues (eWAT) from mice on a HFD for 16 weeks were minced and cultured in 24-well plates and treated with HCA at 0.5 and 1.0 μM in DMEM/F-12 containing 10% cosmic calf serum (CCS) and 1% penicillin-streptomycin (basal growth media, BGM). […] These preliminary data are strong evidence that Sg metabolites have the potential to modulate host inflammatory responses and attenuate inflammation.
HCA promotes proliferation of health related bacteria and inhibits proliferation and attachment of periodontopathogenic bacteria. Promoting the growth of health-related commensal bacteria while inhibiting proliferation and attachment of pathogenic bacteria may be effective at preventing or treating periodontal inflammation. To determine if HCA has an effect on the growth properties of commensal bacteria and periodontopathogens, HCA at different concentrations was added to aerobic culture of S. mitis and S. oralis and anaerobic culture of T. denticola as described in our published manuscript (see detail in Shu et al, Journal of Periodontology, 2022). FIGS. 18A-C summarize the functions of HCA on the proliferation of specific commensal and pathogenic bacteria. […] Furthermore, the function of HCA on P. gingivalis attachment, a key parameter of adhesion and biofilm formation by periodontopathogenic bacteria, was investigated. […] Attachment measurements of P. gingivalis were performed based on our published studies (see detail in Shu et al, Journal of Periodontology, 2022). […] To test the biocompatibility and anti-inflammatory properties of HCA, human monocyte-derived macrophages (MDM) and gingival fibroblasts (HGF) were prepared as described in our previous studies. The cells were then treated with HCA from 0.1 to 50 μM. No toxicity was observed after treatment with different concentrations of HCA in either cell type using an MTT assay (FIGS. 19A and B, left column). The anti-inflammatory function of HCA on MDM and HGF after exposure to P. gingivalis lipopolysaccharide (PG-LPS) was investigated. […] HCA mitigates inflammation and affects the composition of microbiomes in vivo. Recent studies investigated whether HCA modulates periodontal inflammation using a mouse model. To induce periodontal inflammation, a total of 1 μl Pg-LPS at 10 μg/μl was directly injected twice a week into the interdental region between maxillary molars of C57BL/6J mice using a Hamilton1700 series syringe according to our previously published studies. […]

O=C(O)CCCCCO [HCA, 6-hydroxycaproic acid]
TNF-induced IL-6 secretion (3T3-L1): significantly reduced | transcripts of IL-1β, IL-6, and IL-8 ([1]; HCA at 0.1 μM, 6 hours following PG-LPS challenge at 0.1 μg/mL): significantly downregulated | protein levels of IL-6 and IL-8 ([1]; HCA at 0.1 μM, HGF lysate, after 24 hrs): significantly reduced | transcripts of IL-1β, 6, and 8 ([1]; HCA at 0.1 and 1.0 μM, Pg-LPS at 100 ng/ml, after 6 hrs): significantly downregulated | proinflammatory cytokines (transcripts of IL-1β, 6 and 8) ([1]; at 0.1 μg after Pg-LPS challenge): modulate
